{"source": "patent US7517851B2", "about": "“Chlamydia oligosaccharides” (priority 1996, dated 2009)", "system": "Chlamydia trachomatis L2/434/Bu", "format": "cell-based", "conditions": "HeLa cells, maximum concentration (20 μg) tested", "note": "Like-named read-outs stand apart in the source and are kept apart here.", "data": [{"substance": "oligomannose 9", "values": [{"measurement": "% INHIBITION (infectivity inhibition)", "setting": "first of two separate sets of experiments", "value": 64, "unit": "%"}, {"measurement": "% INHIBITION (infectivity inhibition)", "setting": "second of two separate sets of experiments", "value": 62, "unit": "%"}]}]}
